{"source": "ChEMBL document CHEMBL5365464", "about": "“Structure-Based Optimization of the Third Generation Type II Macrocycle TRK Inhibitors with Improved Activity against Solvent-Front, xDFG, and Gatekeeper Mutations” (J Med Chem, 2023)", "key": {"[1]": {"target": "High affinity nerve growth factor receptor (Homo sapiens, UniProt P04629)", "test": "Inhibition of N-terminal hexa his tagged TRKA (485 to 795 residues) (unknown origin) expressed in baculovirus expression system Sf9 cells using Ser/Thr 06 as peptide substrate incubated for 1 hr in presence of ATP by FRET based Z-LYTE assay"}, "[2]": {"target": "High affinity nerve growth factor receptor (Homo sapiens, UniProt P04629, G667C)", "sequence (P04629 33-796 G667C limits assumed)": "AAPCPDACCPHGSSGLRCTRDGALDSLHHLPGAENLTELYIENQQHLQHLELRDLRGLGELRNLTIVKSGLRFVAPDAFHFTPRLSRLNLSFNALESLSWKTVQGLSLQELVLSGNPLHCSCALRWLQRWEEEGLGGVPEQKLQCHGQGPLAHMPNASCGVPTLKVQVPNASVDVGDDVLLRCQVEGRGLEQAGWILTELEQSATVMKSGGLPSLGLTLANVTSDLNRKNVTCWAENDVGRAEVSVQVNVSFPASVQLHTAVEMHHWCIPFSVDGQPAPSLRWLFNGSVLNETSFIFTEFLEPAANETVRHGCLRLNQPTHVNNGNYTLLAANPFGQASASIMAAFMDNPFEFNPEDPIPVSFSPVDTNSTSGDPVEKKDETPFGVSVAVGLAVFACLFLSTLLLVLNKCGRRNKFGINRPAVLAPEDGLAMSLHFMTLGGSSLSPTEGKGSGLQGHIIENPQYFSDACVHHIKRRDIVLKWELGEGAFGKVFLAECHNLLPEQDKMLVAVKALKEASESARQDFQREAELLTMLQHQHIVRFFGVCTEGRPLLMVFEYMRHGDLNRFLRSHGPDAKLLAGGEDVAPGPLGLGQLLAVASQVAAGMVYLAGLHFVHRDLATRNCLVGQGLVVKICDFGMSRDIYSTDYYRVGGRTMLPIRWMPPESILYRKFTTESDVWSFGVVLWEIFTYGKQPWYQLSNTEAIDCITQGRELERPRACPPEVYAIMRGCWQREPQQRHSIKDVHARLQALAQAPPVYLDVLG", "test": "Inhibition of TRKA G667C mutant (unknown origin) expressed in baculovirus expression system Sf9 cells using Ser/Thr 06 as peptide substrate incubated for 1 hr in presence of ATP by FRET based Z-LYTE assay"}, "[3]": {"target": "NT-3 growth factor receptor (Homo sapiens, UniProt Q16288)", "test": "Inhibition of TRKC (unknown origin) using Ser/Thr 06 as peptide substrate incubated for 1 hr in presence of ATP by FRET based Z-LYTE assay"}, "[4]": {"test_system": "BaF3", "test": "Antiproliferative activity against mouse BaF3 cells harbouring CD74-NTRK1 fusion protein incubated for 3 days by CCK8 method", "conditions": "BaF3, 72 h"}, "[5]": {"test_system": "BaF3", "test": "Antiproliferative activity against mouse BaF3 cells harbouring CD74-NTRK1 G595R mutant fusion protein incubated for 3 days by CCK8 method", "assay_type": "functional, cell-based", "conditions": "BaF3, 72 h"}, "[6]": {"test_system": "BaF3", "test": "Antiproliferative activity against mouse BaF3 cells harbouring TRKA-F589L fusion protein incubated for 3 days by CCK8 method", "conditions": "BaF3, 72 h"}, "[7]": {"test_system": "BaF3", "test": "cells", "conditions": "Mus musculus, BaF3, 72 h"}, "[8]": {"test_system": "BaF3", "test": "Antiproliferative activity against mouse BaF3 cells harbouring CD74-[…] mutant fusion protein incubated for 3 days by CCK8 method", "assay_type": "functional, cell-based", "conditions": "BaF3, 72 h"}, "[9]": {"test_system": "BaF3", "test": "Antiproliferative activity against mouse BaF3 cells harbouring ETV6-NTRK3 fusion protein incubated for 3 days by CCK8 method", "conditions": "BaF3, 72 h"}, "[10]": {"target": "High affinity nerve growth factor receptor (Homo sapiens, UniProt P04629, G595R)", "sequence (P04629 33-796 G595R limits assumed)": "as the sequence (P04629 33-796 G667C limits assumed) above, with G563R, C635G counted along it", "test": "Inhibition of TRKA G595R mutant (unknown origin) expressed in baculovirus expression system Sf9 cells using Ser/Thr 06 as peptide substrate incubated for 1 hr in presence of ATP by FRET based Z-LYTE assay"}, "[11]": {"test": "Toxicity in CB17-SCID mouse assessed as effect on body weight loss at 50 mg/kg/day administered via oral gavage measured every 2 days for 12 days", "assay_type": "organism-based", "conditions": "in vivo, 288 h, time 12 day"}, "[12]": {"test": "AUC (0 to t) in ICR mouse at 10 mg/kg, po measured upto 24 hrs by LC-MS/MS analysis", "assay_type": "ADME, organism-based", "design": "time < 24 hrs, dose 10 mg/kg, route po", "conditions": "in vivo"}, "[13]": {"test": "Toxicity in CB17-SCID mouse assessed as drug tolerance at 50 mg/kg/day administered via oral gavage measured every 2 days for 12 days", "assay_type": "organism-based", "conditions": "in vivo, 288 h, time 12 day"}, "[14]": {"test": "AUC (0 to infinity) in ICR mouse at 2.0 mg/kg, iv measured upto 24 hrs by LC-MS/MS analysis", "assay_type": "ADME, organism-based", "design": "dose 2 mg/kg, time < 24 hrs, route iv", "conditions": "in vivo"}, "[15]": {"target": "Receptor-type tyrosine-protein kinase FLT3 (Homo sapiens, UniProt P36888)", "sequence (P36888 whole entry)": "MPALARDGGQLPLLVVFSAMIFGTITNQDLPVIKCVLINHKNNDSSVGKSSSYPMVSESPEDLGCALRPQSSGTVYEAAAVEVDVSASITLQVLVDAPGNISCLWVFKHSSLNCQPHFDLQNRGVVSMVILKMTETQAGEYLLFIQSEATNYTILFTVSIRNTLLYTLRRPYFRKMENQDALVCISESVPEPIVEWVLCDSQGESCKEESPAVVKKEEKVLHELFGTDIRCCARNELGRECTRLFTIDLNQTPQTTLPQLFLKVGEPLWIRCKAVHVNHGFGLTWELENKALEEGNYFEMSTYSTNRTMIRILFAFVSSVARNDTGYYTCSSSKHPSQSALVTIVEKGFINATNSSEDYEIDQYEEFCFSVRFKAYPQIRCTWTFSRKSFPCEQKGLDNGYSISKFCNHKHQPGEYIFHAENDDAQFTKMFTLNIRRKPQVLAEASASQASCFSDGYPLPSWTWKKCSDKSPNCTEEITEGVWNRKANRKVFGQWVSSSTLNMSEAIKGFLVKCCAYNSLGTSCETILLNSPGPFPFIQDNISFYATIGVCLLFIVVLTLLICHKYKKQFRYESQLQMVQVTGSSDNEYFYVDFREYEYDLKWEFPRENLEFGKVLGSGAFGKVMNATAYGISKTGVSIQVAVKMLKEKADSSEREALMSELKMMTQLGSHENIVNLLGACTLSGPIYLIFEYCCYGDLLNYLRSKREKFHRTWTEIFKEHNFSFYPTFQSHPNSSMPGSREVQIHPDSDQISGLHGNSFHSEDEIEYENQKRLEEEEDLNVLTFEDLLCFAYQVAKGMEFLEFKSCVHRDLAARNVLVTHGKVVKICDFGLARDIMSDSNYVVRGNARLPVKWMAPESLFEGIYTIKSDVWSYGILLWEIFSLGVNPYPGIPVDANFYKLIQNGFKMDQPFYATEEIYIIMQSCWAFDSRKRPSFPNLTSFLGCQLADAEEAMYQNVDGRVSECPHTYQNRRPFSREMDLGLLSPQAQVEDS", "test": "Inhibition of FLT3 (unknown origin)"}, "[16]": {"target": "Proto-oncogene tyrosine-protein kinase receptor Ret (Homo sapiens, UniProt P07949)", "test": "Inhibition of RET (unknown origin)"}, "[17]": {"target": "Ribosomal protein S6 kinase", "test": "Inhibition of P70S6K (unknown origin)", "assay_type": "protein assay, Homo sapiens"}, "[18]": {"test": "Oral bioavailability in ICR mouse at 10 mg/kg measured upto 24 hrs by LC-MS/MS analysis", "assay_type": "ADME, organism-based", "conditions": "in vivo"}, "[19]": {"target": "Epithelial discoidin domain-containing receptor 1 (Homo sapiens, UniProt Q08345)", "test": "Inhibition of DDR1 (unknown origin)"}, "[20]": {"target": "Vascular endothelial growth factor receptor 2 (Homo sapiens, UniProt P35968)", "test": "Inhibition of KDR (unknown origin)"}, "[21]": {"target": "Tyrosine-protein kinase Mer (Homo sapiens, UniProt Q12866)", "sequence (Q12866 whole entry)": "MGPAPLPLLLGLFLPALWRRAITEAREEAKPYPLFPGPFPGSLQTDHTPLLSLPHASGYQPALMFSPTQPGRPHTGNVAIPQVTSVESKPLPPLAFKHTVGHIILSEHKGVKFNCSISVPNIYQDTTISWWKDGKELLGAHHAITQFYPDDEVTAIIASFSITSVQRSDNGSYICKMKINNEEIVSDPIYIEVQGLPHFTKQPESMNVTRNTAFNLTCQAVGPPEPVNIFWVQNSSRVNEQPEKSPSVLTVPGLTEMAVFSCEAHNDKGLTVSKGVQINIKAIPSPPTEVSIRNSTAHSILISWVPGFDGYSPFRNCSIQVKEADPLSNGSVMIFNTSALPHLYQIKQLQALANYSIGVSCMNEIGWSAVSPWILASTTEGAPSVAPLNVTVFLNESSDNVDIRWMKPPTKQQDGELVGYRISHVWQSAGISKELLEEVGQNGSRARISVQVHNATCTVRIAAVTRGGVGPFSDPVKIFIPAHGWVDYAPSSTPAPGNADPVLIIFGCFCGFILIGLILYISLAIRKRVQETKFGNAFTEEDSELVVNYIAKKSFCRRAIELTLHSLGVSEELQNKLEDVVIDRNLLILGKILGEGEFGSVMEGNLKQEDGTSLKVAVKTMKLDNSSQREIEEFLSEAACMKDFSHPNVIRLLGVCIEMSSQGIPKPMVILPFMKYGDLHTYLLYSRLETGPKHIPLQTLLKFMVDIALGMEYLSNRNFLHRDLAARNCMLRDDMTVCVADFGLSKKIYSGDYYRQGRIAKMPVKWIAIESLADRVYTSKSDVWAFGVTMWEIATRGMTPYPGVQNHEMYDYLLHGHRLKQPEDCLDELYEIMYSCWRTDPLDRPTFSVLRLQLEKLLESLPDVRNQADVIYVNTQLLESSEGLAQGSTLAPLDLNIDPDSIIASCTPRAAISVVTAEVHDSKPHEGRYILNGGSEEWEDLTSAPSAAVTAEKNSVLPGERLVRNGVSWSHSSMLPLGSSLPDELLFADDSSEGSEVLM", "test": "Inhibition of Mer (unknown origin)"}, "[22]": {"test": "Cmax in ICR mouse at 10 mg/kg, po measured upto 24 hrs by LC-MS/MS analysis", "assay_type": "ADME, organism-based", "design": "dose 10 mg/kg, time < 24 hrs, route po", "conditions": "in vivo"}, "[23]": {"target": "Ephrin type-A receptor 5 (Homo sapiens, UniProt P54756)", "test": "Inhibition of EphA5 (unknown origin)"}, "[24]": {"test": "Cmax in ICR mouse at 2.0 mg/kg, iv measured upto 24 hrs by LC-MS/MS analysis", "assay_type": "ADME, organism-based", "design": "dose 2 mg/kg, time < 24 hrs, route iv", "conditions": "in vivo"}, "[25]": {"target": "Cyclin-dependent kinase 14 (Homo sapiens, UniProt O94921)", "test": "Inhibition of CDK14 (unknown origin)"}, "[26]": {"target": "Vascular endothelial growth factor receptor 3 (Homo sapiens, UniProt P35916)", "test": "Inhibition of FLT4 (unknown origin)"}, "[27]": {"target": "Angiopoietin-1 receptor (Homo sapiens, UniProt Q02763)", "test": "Inhibition of Tie2 (unknown origin)"}, "[28]": {"test": "Half life in ICR mouse at 10 mg/kg, po measured upto 24 hrs by LC-MS/MS analysis", "assay_type": "ADME, organism-based", "conditions": "in vivo"}, "[29]": {"test": "Clearance in ICR mouse at 2.0 mg/kg, iv measured upto 24 hrs by LC-MS/MS analysis", "assay_type": "ADME, organism-based", "conditions": "in vivo"}, "[30]": {"target": "Tyrosine-protein kinase receptor UFO (Homo sapiens, UniProt P30530)", "test": "Inhibition of Axl (unknown origin)"}, "[31]": {"target": "Muscle, skeletal receptor tyrosine-protein kinase (Homo sapiens, UniProt O15146)", "sequence (O15146 whole entry)": "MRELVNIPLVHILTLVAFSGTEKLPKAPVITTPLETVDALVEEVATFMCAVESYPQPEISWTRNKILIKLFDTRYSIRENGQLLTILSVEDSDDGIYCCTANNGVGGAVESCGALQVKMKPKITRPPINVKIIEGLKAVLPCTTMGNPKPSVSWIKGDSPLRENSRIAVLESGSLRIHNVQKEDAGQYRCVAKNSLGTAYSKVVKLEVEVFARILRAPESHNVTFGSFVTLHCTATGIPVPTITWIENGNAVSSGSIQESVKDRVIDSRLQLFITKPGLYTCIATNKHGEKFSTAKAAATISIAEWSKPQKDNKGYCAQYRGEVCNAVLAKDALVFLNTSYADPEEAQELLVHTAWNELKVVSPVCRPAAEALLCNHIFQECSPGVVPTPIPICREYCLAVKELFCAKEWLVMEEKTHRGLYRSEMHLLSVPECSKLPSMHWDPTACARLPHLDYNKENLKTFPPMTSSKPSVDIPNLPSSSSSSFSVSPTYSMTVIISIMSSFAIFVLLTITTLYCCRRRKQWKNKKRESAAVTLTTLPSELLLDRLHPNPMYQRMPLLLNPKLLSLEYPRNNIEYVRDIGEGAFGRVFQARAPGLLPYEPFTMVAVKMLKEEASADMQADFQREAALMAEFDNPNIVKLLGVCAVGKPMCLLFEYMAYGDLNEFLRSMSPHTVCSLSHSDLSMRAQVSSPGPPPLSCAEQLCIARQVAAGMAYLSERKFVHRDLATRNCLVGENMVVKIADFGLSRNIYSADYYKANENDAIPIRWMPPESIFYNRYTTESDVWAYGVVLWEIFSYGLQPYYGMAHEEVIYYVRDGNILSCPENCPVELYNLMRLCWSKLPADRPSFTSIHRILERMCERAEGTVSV", "test": "Inhibition of Musk (unknown origin)"}, "[32]": {"target": "Ephrin type-A receptor 7 (Homo sapiens, UniProt Q15375)", "test": "Inhibition of EphA7 (unknown origin)"}, "[33]": {"target": "Tyrosine-protein kinase HCK (Homo sapiens, UniProt P08631)", "test": "Inhibition of Hck (unknown origin)"}, "[34]": {"test": "Toxicity in CB17-SCID mouse assessed as mortality at 50 mg/kg/day administered via oral gavage measured every 2 days for 12 days", "assay_type": "organism-based", "conditions": "in vivo, 288 h, time 12 day"}, "[35]": {"test": "AUC (0 to infinity) in ICR mouse at 10 mg/kg, po measured upto 24 hrs by LC-MS/MS analysis", "assay_type": "ADME, organism-based", "design": "dose 10 mg/kg, time < 24 hrs, route po", "conditions": "in vivo"}, "[36]": {"test": "Half life in ICR mouse at 2.0 mg/kg, iv measured upto 24 hrs by LC-MS/MS analysis", "assay_type": "ADME, organism-based", "conditions": "in vivo"}, "[37]": {"target": "Ephrin type-A receptor 2 (Homo sapiens, UniProt P29317)", "sequence (P29317 whole entry)": "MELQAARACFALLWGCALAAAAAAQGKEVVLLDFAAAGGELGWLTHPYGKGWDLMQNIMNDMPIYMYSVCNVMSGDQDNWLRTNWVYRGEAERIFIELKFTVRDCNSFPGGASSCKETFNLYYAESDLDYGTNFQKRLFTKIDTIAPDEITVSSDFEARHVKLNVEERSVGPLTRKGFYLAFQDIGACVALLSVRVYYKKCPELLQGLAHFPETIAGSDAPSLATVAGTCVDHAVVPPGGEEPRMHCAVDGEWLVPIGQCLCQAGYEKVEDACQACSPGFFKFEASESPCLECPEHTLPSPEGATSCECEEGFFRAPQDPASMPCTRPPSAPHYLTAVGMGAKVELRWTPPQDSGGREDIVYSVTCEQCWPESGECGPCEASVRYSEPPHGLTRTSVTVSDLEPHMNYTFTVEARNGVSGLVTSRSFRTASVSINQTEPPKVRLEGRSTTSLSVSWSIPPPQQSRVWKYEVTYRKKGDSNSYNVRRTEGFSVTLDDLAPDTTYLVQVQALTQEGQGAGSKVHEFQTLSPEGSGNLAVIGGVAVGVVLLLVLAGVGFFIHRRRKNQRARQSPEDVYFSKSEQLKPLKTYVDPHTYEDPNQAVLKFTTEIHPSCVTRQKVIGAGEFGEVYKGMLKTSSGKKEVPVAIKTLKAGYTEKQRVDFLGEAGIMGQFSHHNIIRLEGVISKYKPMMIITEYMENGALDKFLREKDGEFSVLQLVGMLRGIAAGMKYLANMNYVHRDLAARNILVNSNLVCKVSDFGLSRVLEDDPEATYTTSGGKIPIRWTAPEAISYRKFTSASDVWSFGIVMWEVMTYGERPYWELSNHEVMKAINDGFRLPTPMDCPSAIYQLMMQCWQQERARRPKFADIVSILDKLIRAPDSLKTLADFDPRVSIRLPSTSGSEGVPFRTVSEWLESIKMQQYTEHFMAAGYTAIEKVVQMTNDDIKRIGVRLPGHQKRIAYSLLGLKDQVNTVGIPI", "test": "Inhibition of EphA2 (unknown origin)"}, "[38]": {"test": "AUC (0 to t) in ICR mouse at 2.0 mg/kg, iv measured upto 24 hrs by LC-MS/MS analysis", "assay_type": "ADME, organism-based", "design": "time < 24 hrs, dose 2 mg/kg, route iv", "conditions": "in vivo"}, "[39]": {"test": "Tmax in ICR mouse at 2.0 mg/kg, iv measured upto 24 hrs by LC-MS/MS analysis", "assay_type": "ADME, organism-based", "conditions": "in vivo"}, "[40]": {"test": "Tmax in ICR mouse at 10 mg/kg, po measured upto 24 hrs by LC-MS/MS analysis", "assay_type": "ADME, organism-based", "conditions": "in vivo"}}}
{"smiles": "Cc1c2cc(cc1C(=O)Nc1cc(CN3CCN(C)CC3)cc(C(C)C)c1)OCCCCCCCNC(=O)c1ccc3ncc(n3n1)C#C2", "values": [{"measurement": "IC50", "setting": "[1]", "result": 7.85, "unit": "nM"}, {"measurement": "IC50", "setting": "[2]", "result": 16.8, "unit": "nM"}, {"measurement": "IC50", "setting": "[3]", "result": 2.83, "unit": "nM"}, {"measurement": "IC50", "setting": "[4]", "result": 20.5, "unit": "nM"}, {"measurement": "IC50", "setting": "[5]", "result": 42.3, "unit": "nM"}, {"measurement": "IC50", "setting": "[6]", "result": 32.7, "unit": "nM"}, {"measurement": "IC50", "setting": "[7]", "result": 3.85, "unit": "nM"}, {"measurement": "IC50", "setting": "[8]", "result": 18.9, "unit": "nM"}, {"measurement": "IC50", "setting": "[9]", "result": 104, "unit": "nM"}, {"measurement": "IC50", "setting": "[10]", "result": 10.7, "unit": "nM"}]}
{"smiles": "Cc1c2cc(cc1C(=O)Nc1cc(CN3CCN(C)CC3)cc(C3CC3)c1)OCCCCCCCNC(=O)c1ccc3ncc(n3n1)C#C2", "values": [{"measurement": "Activity", "setting": "[11]", "result": "Non-Toxic"}, {"measurement": "AUC(0-t) at 24 h", "setting": "[12]", "result": 501, "unit": "ng·h/mL"}, {"measurement": "Activity", "setting": "[13]", "result": "Non-Toxic"}, {"measurement": "AUC(0-inf)", "setting": "[14]", "result": 1280, "unit": "ng·h/mL"}, {"measurement": "IC50", "setting": "[15]", "result": 11.6, "unit": "nM"}, {"measurement": "IC50", "setting": "[16]", "result": 7.48, "unit": "nM"}, {"measurement": "IC50", "setting": "[17]", "result": 66.82, "unit": "nM"}, {"measurement": "bioavailability", "setting": "[18]", "result": 11, "unit": "%"}, {"measurement": "IC50", "setting": "[19]", "result": 23.8, "unit": "nM"}, {"measurement": "IC50", "setting": "[20]", "result": 73.6, "unit": "nM"}, {"measurement": "IC50", "setting": "[21]", "result": 25.9, "unit": "nM"}, {"measurement": "Cmax", "setting": "[22]", "result": 95.2, "unit": "ng/mL"}, {"measurement": "IC50", "setting": "[23]", "result": 23, "unit": "nM"}, {"measurement": "Cmax", "setting": "[24]", "result": 626, "unit": "ng/mL"}, {"measurement": "IC50", "setting": "[25]", "result": 155, "unit": "nM"}, {"measurement": "IC50", "setting": "[26]", "result": 59.4, "unit": "nM"}, {"measurement": "IC50", "setting": "[27]", "result": 66.3, "unit": "nM"}, {"measurement": "half-life", "setting": "[28]", "result": 4.3, "unit": "h"}, {"measurement": "clearance", "setting": "[29]", "result": 26.7, "unit": "mL/min/kg"}, {"measurement": "IC50", "setting": "[30]", "result": 1550, "unit": "nM"}, {"measurement": "IC50", "setting": "[31]", "result": 12.8, "unit": "nM"}, {"measurement": "IC50", "setting": "[32]", "result": 1.77, "unit": "nM"}, {"measurement": "IC50", "setting": "[33]", "result": 253, "unit": "nM"}, {"measurement": "Activity", "setting": "[34]", "result": "Non-Toxic"}, {"measurement": "AUC(0-inf)", "setting": "[35]", "result": 707, "unit": "ng·h/mL"}, {"measurement": "half-life", "setting": "[36]", "result": 1.92, "unit": "h"}, {"measurement": "IC50", "setting": "[37]", "result": 12.8, "unit": "nM"}, {"measurement": "AUC(0-t) at 24 h", "setting": "[38]", "result": 1200, "unit": "ng·h/mL"}, {"measurement": "Tmax", "setting": "[39]", "result": 4.8, "unit": "min"}, {"measurement": "Tmax", "setting": "[40]", "result": 2.17, "unit": "h"}]}
